pIC50: −log10 of the molar value.
Key:
Assay in all cases: Cell line proliferation study
Type in all cases: cell-based, human
[1] = tested on: NCIH2228; settings: NCIH2228, lung; for pIC50: Homo sapiens, NCI-H2228, 72 hours, read-out: gIC50
Procedure: (§1) In a separate study, combination drug tests with Compounds A and B were conducted using a panel of cell lines from human colon cancers (n=26), lung cancers (n=15) and pancreatic cancers (n=6). Cell lines were obtained from commercial vendors (ATCC and DSMZ). Cell lines were grown in RPMI-1640 supplemented with 2 mM glutamine, 1 mM sodium pyruvate and 10% fetal bovine serum (except for Capan-1 and HuP-T4 which were grown with 20% fetal bovine serum) and maintained at 37° C. and 5% CO2 in a humid incubator. Assays were performed in 384 well microtiter plates with optimum seeding densities for each cell line.
(§2) The test compounds were prepared as 10 mM stocks in 100% DMSO. Further dilutions of the compounds were made in DMSO. Compound A was diluted horizontally in a separate 96 well microtiter plate in rows D-G using a 3-fold dilution series for 10 dilution points. Compound B was similarly diluted horizontally in a 96 well microtiter plate in rows B-E using a 3-fold dilution series for 10 dilution points.
(§3) The two compounds were combined using equal volumes from each drug plate into cell culture media. […] Both Compound A and Compound B were individually titrated in rows B and C (for Compound B) and rows F and G (for Compound A) of the merged drug plate.
(§4) A 1:10 dilution of the drugs was performed in cell culture media prior to addition to the cells.
(§5) The final concentration range for the test compounds was 250 to 0.013 nM for Compound A and 1000 to […] for Compound B. The positive control consisted of culture media with DMSO at 0.1% and cells. The negative control consisted of culture media with DMSO at 0.1%. The cell lines were incubated at 37° C., 5% CO2 in humid air for 72 hours. Cell proliferation was measured using the CellTiter Glo (Promega) reagent according to the manufacturer's protocol. The plates are treated with CellTiter Glo solution and are analyzed for RLU (relative light units) using a Molecular Devices SpectraMax M5 plate reader.
(§6) The percent intensity values were used in model 205 of XLfit (IDBS, Inc.) in Microsoft Excel to calculate gIC50 values using a 4 parameter logistical fit. The midpoint of the growth window (the gIC50) falls half way between the number of cells at the time of compound addition (T=0) and the growth of control cells treated with DMSO at 72 hrs. The number of cells at time zero (T0) is divided from the intensity value at the bottom of the response curve (Ymin) to generate a measure for cell death (Ymin/T0). A value below 1 for Ymin/T0 indicates stronger potency to induce cell death with the treatment when compared to higher values. […]

[2] = tested on: Calu6; settings: Calu6, lung; for pIC50: Homo sapiens, Calu-6, 72 hours, read-out: gIC50
Procedure: as §1, §2, §3, §4, §5, §6

[3] = tested on: ASPC1; settings: ASPC1, pancreas; for pIC50: Homo sapiens, 72 hours, read-out: gIC50
Procedure: as §1, §2, §3, §4, §5, §6

[4] = tested on: NCIH508; settings: NCIH508, colon; for pIC50: Homo sapiens, NCI-H508, 72 hours, read-out: gIC50
Procedure: as §1, §2, §3, §4, §5, §6

[5] = tested on: HCC2998; settings: HCC2998, colon; for pIC50: Homo sapiens, HCC 2998, 72 hours, read-out: gIC50
Procedure: as §1, §2, §3, §4, §5, §6

[6] = tested on: RKO; settings: colon; for pIC50: Homo sapiens, 72 hours, read-out: gIC50
Procedure: as §1, §2, §3, §4, §5, §6

[7] = tested on: Colo201; settings: Colo201, colon; for pIC50: Homo sapiens, COLO 201, 72 hours, read-out: gIC50
Procedure: as §1, §2, §3, §4, §5, §6

[8] = tested on: SKMES1; settings: SKMES1, lung; for pIC50: Homo sapiens, SK-MES-1, 72 hours, read-out: gIC50
Procedure: as §1, §2, §3, §4, §5, §6

[9] = tested on: NCIH460; settings: NCIH460, lung; for pIC50: Homo sapiens, NCI-H460, 72 hours, read-out: gIC50
Procedure: as §1, §2, §3, §4, §5, §6

[10] = tested on: SW1116; settings: SW1116, colon; for pIC50: Homo sapiens, SW 1116, 72 hours, read-out: gIC50
Procedure: as §1, §2, §3, §4, §5, §6

[11] = tested on: Colo320HSR; settings: colon; for pIC50: Homo sapiens, COLO-320-HSR, 72 hours, read-out: gIC50
Procedure: as §1, §2, §3, §4, §5, §6

[12] = tested on: Colo320DM; settings: colon; for pIC50: Homo sapiens, COLO 320DM, 72 hours, read-out: gIC50
Procedure: as §1, §2, §3, §4, §5, §6

[13] = tested on: NCIH520; settings: NCIH520, lung; for pIC50: Homo sapiens, NCI-H520, 72 hours, read-out: gIC50
Procedure: as §1, §2, §3, §4, §5, §6

[14] = tested on: BxPC3; settings: BxPC3, pancreas; for pIC50: Homo sapiens, BXPC-3, 72 hours, read-out: gIC50
Procedure: as §1, §2, §3, §4, §5, §6

[15] = tested on: SW1417; settings: SW1417, colon; for pIC50: Homo sapiens, 72 hours, read-out: gIC50
Procedure: as §1, §2, §3, §4, §5, §6

[16] = tested on: NCIH2170; settings: NCIH2170, lung; for pIC50: Homo sapiens, NCI-H2170, 72 hours, read-out: gIC50
Procedure: as §1, §2, §3, §4, §5, §6

[17] = tested on: HCT-15; settings: HC115, colon; for pIC50: Homo sapiens, HCT-15, 72 hours, read-out: gIC50
Procedure: as §1, §2, §3, §4, §5, §6

[18] = tested on: Colo205; settings: Colo205, colon; for pIC50: Homo sapiens, COLO 205, 72 hours, read-out: gIC50
Procedure: as §1, §2, §3, §4, §5, §6

[19] = tested on: NCIH747; settings: NCIH747, colon; for pIC50: Homo sapiens, NCI-H747, 72 hours, read-out: gIC50
Procedure: as §1, §2, §3, §4, §5, §6

[20] = tested on: HCT116; settings: HCT116, colon; for pIC50: Homo sapiens, HCT-116, 72 hours, read-out: gIC50
Procedure: as §1, §2, §3, §4, §5, §6

Row | pIC50 [2] | pIC50 [3] | pIC50 [5] | pIC50 [7] | pIC50 [8] | pIC50 [10] | SMILES | pIC50 [1] | Ymin/T0 [1] | Ymin/T0 [2] | Ymin/T0 [3] | pIC50 [4] | Ymin/T0 [4] | Ymin/T0 [5] | pIC50 [6] | Ymin/T0 [6] | Ymin/T0 [7] | Ymin/T0 [8] | pIC50 [9] | Ymin/T0 [9] | Ymin/T0 [10] | further results
1 | 7.27 | 7.71 | 7.78 | 8.40 | 7.09 | 7.84 | CC(=O)Nc1cccc(-n2c(=O)n(C3CC3)c(=O)c3c(Nc4ccc(I)cc4F)n(C)c(=O)c(C)c32)c1 [Compound A, N-{3-[3-cyclopropyl-5-(2-fluoro-4-iodo-phenylamino)-6,8-dimethyl-2,4,7-trioxo-3,4,6,7-tetrahydro-2H-pyrido[4,3-d]pyrimidin-1-yl]phenyl}acetamide] | < 6.60 | 39.7 | 15.0 | 13.6 | 7.65 | 15.22 | 2.13 | 7.11 | 24.44 | −8.96 | 19.5 | 7.20 | 39.1 | 2.28 | pIC50 [11]: < 6.60; Ymin/T0 [11]: 78.4; pIC50 [12]: < 6.60; Ymin/T0 [12]: 81.01; pIC50 [13]: < 6.60; Ymin/T0 [13]: 70.2; Ymin/T0 [14]: 20.86; pIC50 [14]: < 6.60; pIC50 [15]: 8.54; Ymin/T0 [15]: 16.19; pIC50 [16]: < 6.60; Ymin/T0 [16]: 59.5; Ymin/T0 [17]: 57.0; pIC50 [17]: < 6.60; Ymin/T0 [18]: −1.30; pIC50 [18]: 9.11; pIC50 [19]: 8.27; Ymin/T0 [19]: 5.55; Ymin/T0 [20]: 19.40; pIC50 [20]: 7.63
2 | < 6.00 | < 6.00 | 6.53 | < 6.00 | < 6.00 | < 6.00 | Cn1ncc(Cl)c1-c1cc(C(=O)N[C@H](CN)Cc2ccc(F)c(F)c2)oc1Cl [Compound B, N-{(1S)-2-amino-1-[(3,4-difluorophenyl)methyl]ethyl}-5-chloro-4-(4-chloro-1-methyl-1H-pyrazol-5-yl)-2-furancarboxamide] | < 6.00 | 37.1 | 56.3 | 42.9 | 7.17 | 11.12 | −4.90 | < 6.00 | 17.13 | 80.16 | 49.6 | 6.18 | 20.8 | 37.32 | pIC50 [11]: < 6.00; Ymin/T0 [11]: 28.6; pIC50 [12]: < 6.00; Ymin/T0 [12]: 9.81; pIC50 [13]: 6.25; Ymin/T0 [13]: 15.0; Ymin/T0 [14]: 71.87; pIC50 [14]: < 6.00; pIC50 [15]: < 6.00; Ymin/T0 [15]: 3.63; pIC50 [16]: < 6.00; Ymin/T0 [16]: 18.2; Ymin/T0 [17]: 30.4; pIC50 [17]: < 6.00; Ymin/T0 [18]: 14.87; pIC50 [18]: < 6.00; pIC50 [19]: < 6.00; Ymin/T0 [19]: 23.79; Ymin/T0 [20]: 25.31; pIC50 [20]: < 6.00
